Read-outs that look alike come from different tables or passages of the source.

Assay [1] relates to 5-hydroxytryptamine induced bronchoconstriction. Description: inhibition of 5-hydroxytryptamine induced bronchoconstriction in the anaesthetised, artificially respired guinea pig (Konzett-Rossler preparation). It counts as in vivo. The settings on record: for ED50: Cavia porcellus, iv. The procedure:
1. The compounds were examined for their ability to inhibit 5-hydroxytryptamine induced bronchoconstriction in the anaesthetised, artificially respired guinea pig (Konzett-Rossler preparation) The compounds were administered intravenously.
The test for bronchodilator activity used in `Bronchodilator activity` method 1 above was used with three test animals for the comparison testing of Compound 5 against the compound 5-(6-carboxyhexyl)-1-(3-hydroxy-4,4-dimethyloctyl)hydantoin (A) highlighted in German Offenlegungsschrift No. 2724948 for its anti-bronchoconstriction activity.

Assay [2] has as its system collagen induced platelet aggregation in human platelet rich plasma. Nature of the assay: inhibition of platelet aggregation induced in vitro by collagen in human platelet rich plasma. It counts as cell-based. The settings on record: Table C, read-out: IC50 against collagen induced aggregation. From the text:
The compounds were examined for their ability to inhibit platelet aggregation induced in vitro by collagen in human platelet rich plasma.

Assay [3] has as its system bronchoconstriction induced by a histamine aerosol. Description: protection of conscious guinea pigs against bronchoconstriction induced by a histamine aerosol (Herxheimer test). The following applies: Table B, compound by aerosol. It counts as in vivo, guinea pig. The text has this:
2. The compounds were also examined for their ability to protect conscious guinea pigs against bronchoconstriction induced by a histamine aerosol (Herxheimer test). In these experiments the compounds were adminstered by aerosol.

Assay [4] has as its system indomethacin induced gastric damage. Description: anti-ulcer activity: inhibition of indomethacin induced gastric damage in the rat. It counts as in vivo. The settings on record: 100 mg/kg orally. The procedure: Anti-ulcer activity was assessed by the inhibition of indomethacin induced gastric damage in the rat according to the method of Eleghe (1974) Israeli J. Med. Sci. IO, 1451. Rats were starved overnight, given 15 mg/kg indomethacin subcutaneously and sacrificed 4 hours later. Stomachs were reflated with n.saline, cut along the greater curvature pinned out and scored for gastric damage by the following system.
Score 1-3--according to degree of erythema and slight haemorrhage.
Score 4-6--according to degree of mucosal erosion.
Score 7-9--according to depth of gastric damage.
Groups of 7 rats were used for each treatment and the test compound or vehicle were administered 30 minutes prior to giving the indomethacin. Dose of test compound was 100 mg/kg orally and control groups receiving vehicle only were set up simultaneously. Mean values for each treatment were obtained using the above scoring system and the Mann Witney test applied for significance of difference between the values obtained with the treatments.

Assay [5] has as its system arrhythmia in electrostimulation of the right ventricle. Nature of the assay: anti-arrhythmic activity: increase of the voltage required to produce arrhythmia in electrostimulation of the right ventricle. It counts as in vivo, guinea pig. The settings on record: Table D; anaesthetised guinea pigs, 32.0 mg/kg I.d.; p<0.5 (so in the source). From the text:
Compound 5 was examined for its ability to increase the voltage required to produce arrhythmia in electrostimulation of the right ventricle in anaesthatised guinea pigs.

Where [6] appears, read: Table A, anaesthetised guinea pig, i.v., read-out: ED50 against 5-hydroxytryptamine induced bronchoconstriction.
The mark [7] stands for this setting: Table E, comparison testing, three test animals, guinea pig, read-out: ED50 (mean).

Turning to `CCCCC(C)C(C)(O)CCN1C(=O)N(C)C(=O)C1CC=CCCCC(=O)O` (stereo not drawn) [Compound 4, 1-(3'-hydroxy-3'-methyl-4'-methyl-n-octyl)-3-methyl-5(6"-carboxy-n-hex-2"- enyl)hydantoin], the ED50 (in general, the dose at which the effect has come halfway, by size or by number of responders) in assay [1] (setting [6]) stood at 0.6 µg/kg. Also, the IC50 (in general, the concentration needed to halve the response being measured) in assay [2] was 28 µM. The “Activity, Aerosol administration (Herxheimer test)” value in assay [3] was found to be 0.5 µg/mL. In assay [4] (30 minutes before 15 mg/kg indomethacin s.c., score 1-9, vehicle control 4.14±0.59, p<0.01), the “Mean Score ± S.E. of mean (gastric damage)” value is given as 0.43±0.20. In assay [4] (compared with vehicle only treatment), the “anti-ulcer activity (in words)” value was “reduced the mean ulcer score and therefore has significant anti-ulcer activity”.
`CCCCCCC(C)(O)CCN1C(=O)N(C)C(=O)C1CC=CCCCC(=O)O` (stereo not drawn) [Compound 5]: the ED50 in assay [1] (setting [6]) was determined as 1.3 µg/kg; in assay [1] (setting [7]), 1.2 µg/kg. In assay [1] (comparison testing, Table E), the “bronchodilator potency of compound 5 relative to Compound A” value is listed as “at least an order of magnitude more potent”. The IC50 in assay [2] was found to be 22 µM. For the same compound, in assay [3], the “Activity, Aerosol administration (Herxheimer test)” value worked out at 1 µg/mL. The “% increase of voltage ± SEM” value in assay [5] came out at 43.0 ± 7.0%.
`CCCCC(C)(C)C(O)CCN1C(=O)NC(=O)C1CCCCCCC(=O)O` (stereo not drawn) [Compound A, 5-(6-carboxyhexyl)-1-(3-hydroxy-4,4-dimethyloctyl)hydantoin, reference compound]: the ED50 in assay [1] (setting [7]) was 24.6 µg/kg.

The values above are taken from patent US4298745A, “Hydantoin derivatives” (Beecham Group Limited, priority 1978, dated 1981).
